Assay results as given in patent EP3839043A1, “SCREENING METHODS FOR COMPOUNDS MODULATING POLYAMINE TRANSPORT” (Katholieke Universiteit Leuven, priority 2019, dated 2021).

Tests used:
SH-SY5Y cells [1] = test: MUH cytotoxicity assay; format: cell-based, human; conditions: increasing concentrations, 24 h
Description: MUH cytotoxicity assay - SH-SY5Y cells were seeded in 96-well plates (1 X 10^4 cells per well) and allowed to adhere overnight. The cells were subsequently treated with increasing doses of the indicated compounds for 24-48 h. Following exposure, the cells were washed with PBS and stained with 300 µg/ml MUH (prepared in DMSO, dissolved in PBS) for 30 min at 37°C.

D508N mutant = D508N mutant (Homo sapiens, UniProt Q9NQ11, D513N); conditions: 100 µM SPM
Sequence of D508N mutant (Q9NQ11 1-1175 isoform Q9NQ11-3 D508N): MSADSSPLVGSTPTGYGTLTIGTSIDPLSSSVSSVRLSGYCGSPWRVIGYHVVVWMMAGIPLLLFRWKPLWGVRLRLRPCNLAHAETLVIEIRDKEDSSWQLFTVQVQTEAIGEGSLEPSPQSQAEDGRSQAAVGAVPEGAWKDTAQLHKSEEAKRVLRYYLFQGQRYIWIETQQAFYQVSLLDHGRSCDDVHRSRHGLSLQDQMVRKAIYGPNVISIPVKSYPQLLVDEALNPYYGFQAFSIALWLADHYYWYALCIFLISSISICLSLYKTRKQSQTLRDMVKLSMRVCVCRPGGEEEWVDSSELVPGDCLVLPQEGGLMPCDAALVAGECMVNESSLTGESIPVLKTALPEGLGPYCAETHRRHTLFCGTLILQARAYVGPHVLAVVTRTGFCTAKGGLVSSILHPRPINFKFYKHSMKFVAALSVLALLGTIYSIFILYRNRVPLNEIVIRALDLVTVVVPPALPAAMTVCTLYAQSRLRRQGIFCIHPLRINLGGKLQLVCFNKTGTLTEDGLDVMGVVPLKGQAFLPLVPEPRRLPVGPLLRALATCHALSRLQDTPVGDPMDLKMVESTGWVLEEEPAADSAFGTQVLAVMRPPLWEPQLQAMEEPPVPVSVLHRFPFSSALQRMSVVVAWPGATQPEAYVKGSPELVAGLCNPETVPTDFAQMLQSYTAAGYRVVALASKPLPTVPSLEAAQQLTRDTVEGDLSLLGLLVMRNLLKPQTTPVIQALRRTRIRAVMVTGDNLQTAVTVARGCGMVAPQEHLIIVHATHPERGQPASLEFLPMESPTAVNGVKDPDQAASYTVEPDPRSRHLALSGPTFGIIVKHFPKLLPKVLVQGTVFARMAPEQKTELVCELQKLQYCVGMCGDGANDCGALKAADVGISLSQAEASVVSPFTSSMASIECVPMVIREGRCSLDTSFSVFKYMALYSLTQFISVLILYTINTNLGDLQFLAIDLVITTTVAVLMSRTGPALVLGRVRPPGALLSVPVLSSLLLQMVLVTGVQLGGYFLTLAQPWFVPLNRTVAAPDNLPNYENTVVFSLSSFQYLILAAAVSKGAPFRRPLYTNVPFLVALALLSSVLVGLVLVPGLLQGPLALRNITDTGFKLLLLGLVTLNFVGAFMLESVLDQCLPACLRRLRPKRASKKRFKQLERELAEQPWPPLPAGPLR
Description: Membrane fractionation - Transduced SH-SY5Y cells were seeded in […] at a density of 6 x 10^6 cells per plate. 24 h later, the cells were harvested following trypsinization and brief centrifugation (300 x g, 5 min). Subcellular fractionation was performed by differential centrifugation. The microsomal protein concentration was measured using the bicinchoninic acid assay (Thermo Fischer Scientific, Pierce) according to the manufacturer's instructions.
ATPase assay - The ATPase activity of ATP13A2 was assessed using a commercially available luminescence assay (ADP-Glo Max assay, Promega) that monitors the production of ADP via luciferase activity. The reactions were performed for 30 min (37°C) in a final volume of 25 µl. The assay reaction mixture contained 50 mM MOPS-KOH (pH 7), 100 mM KCI, 11 mM MgCl2, 1 mM DTT, 195 µM DDM, various concentrations of the indicated compound, and either microsomes (5 µg) harvested from SH-SY5Y cells overexpressing ATP13A2 (WT or mutants) or purified ATP13A2 (0.5 µg). When purified ATP13A2 was used, we included 125 µM PA, 125 µM PI(3,5)P2 and 19.5 µM DDM in the reaction buffer. […] After 40 min, luminescence was detected using a FlexStation 3.0 system (Molecular Devices). Dose-response curves and n/Km/Vmax values were calculated using GraphPad Prism Software (GraphPad Software Inc.).

ATP13A2 = ATP13A2 (Homo sapiens, UniProt Q9NQ11)
Description: (§1) PLoS One 13, e0193228, (2018)].
(§2) In case of purified ATP13A2, 125 µM PA and 125 µM PI(3,5)P2 were included in the reaction mixture. To determine the sensitivity of the ATP13A2 phosphoenzyme to ATP or a combination of ATP and SPM, 30 s after adding ^32P-ATP, samples were incubated with non-radioactive ATP (5 mM in experiments using microsomes, 1 mM when purified ATP13A2 was used) and SPM (1 mM) before the reaction was stopped at indicated time points. The incorporation of ^32P was visualized following SDS-PAGE under acidic conditions and subsequently detected by autoradiography (microsomes) or liquid scintillation counting (purified ATP13A2) (Liquid Scintillation Analyzer TRI-CARB 2900TR).

Purified ATP13A2 = target: T1, Purified ATP13A2 (Homo sapiens, UniProt Q9NQ11); conditions: 1 mM SPM
T1 sequence (Q9NQ11 1-1175 isoform Q9NQ11-3): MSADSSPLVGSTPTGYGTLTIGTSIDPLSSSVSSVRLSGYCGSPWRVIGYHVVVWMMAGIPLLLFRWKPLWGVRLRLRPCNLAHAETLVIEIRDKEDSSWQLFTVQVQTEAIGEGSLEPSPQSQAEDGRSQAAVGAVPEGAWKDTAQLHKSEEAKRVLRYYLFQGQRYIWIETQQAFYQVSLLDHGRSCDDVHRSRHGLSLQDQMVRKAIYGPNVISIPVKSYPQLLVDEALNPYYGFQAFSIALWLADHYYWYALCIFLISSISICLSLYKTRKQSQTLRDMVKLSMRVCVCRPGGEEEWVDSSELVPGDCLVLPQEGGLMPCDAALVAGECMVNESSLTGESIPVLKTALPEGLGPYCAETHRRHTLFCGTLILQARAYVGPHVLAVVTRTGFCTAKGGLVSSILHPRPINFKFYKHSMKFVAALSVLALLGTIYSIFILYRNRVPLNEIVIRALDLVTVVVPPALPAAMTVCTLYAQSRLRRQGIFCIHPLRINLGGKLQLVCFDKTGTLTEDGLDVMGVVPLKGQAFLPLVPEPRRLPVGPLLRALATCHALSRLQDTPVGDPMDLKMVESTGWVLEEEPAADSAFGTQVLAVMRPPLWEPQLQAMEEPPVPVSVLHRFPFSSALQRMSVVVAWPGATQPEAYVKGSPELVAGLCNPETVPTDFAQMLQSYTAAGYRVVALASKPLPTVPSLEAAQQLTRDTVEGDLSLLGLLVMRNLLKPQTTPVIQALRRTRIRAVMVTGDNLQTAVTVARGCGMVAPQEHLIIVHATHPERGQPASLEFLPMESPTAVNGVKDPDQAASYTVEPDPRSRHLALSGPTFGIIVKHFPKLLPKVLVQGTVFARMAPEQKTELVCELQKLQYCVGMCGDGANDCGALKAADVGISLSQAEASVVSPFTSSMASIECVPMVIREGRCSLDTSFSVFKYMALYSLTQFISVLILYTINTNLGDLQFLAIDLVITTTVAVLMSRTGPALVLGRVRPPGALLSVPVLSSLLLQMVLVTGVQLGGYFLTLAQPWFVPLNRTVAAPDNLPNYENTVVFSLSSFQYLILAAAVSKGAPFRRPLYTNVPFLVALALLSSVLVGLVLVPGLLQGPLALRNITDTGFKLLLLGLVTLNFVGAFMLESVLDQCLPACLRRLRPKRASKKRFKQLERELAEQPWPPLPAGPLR
Description: as §1, §2

SH-SY5Y cells [2] = test system: SH-SY5Y cells
Description: PI exclusion assay - Cells were seeded in 12-well plates (1.0 X 10^5 cells per well) and the next day, the cells were treated with increasing doses of SPM, alone or in combination with the CTSB inhibitor CA-074 (25 µM, 1 h pre-incubation) or acidic nanoparticles (180 ng/ml, 1 h pre-incubation), and incubated for 24 h at 37°C. Thereafter, the cells were harvested following trypsinization and a brief centrifugation (300 x g; 5 min), washed with PBS and stained with 1 µg/ml PI (in PBS containing 1% BSA). An Attune Nxt (Thermo Fischer Scientific) flow cytometer was used to determine the proportion of PI-positive cells (10,000 events per treatment).

SH-SY5Y cells [3] = conditions: KO and KO/D508N cells; 10 µM SPM, 4 h
Description: FITC-dextran based lysosomal pH - SH-SY5Y cells were seeded in 12-well plates (1.0 X 10^5 cells per well) and allowed to adhere overnight. Cells were exposed to 50 µg/ml FITC-dextran for 72 h. Samples were then washed, placed in fresh media and treated with SPM (10 µM) alone or in combination with acidic nanoparticles (180 ng/ml, 1 h pre-incubation) for 4 h. Samples were then collected by centrifugation (450 x g, 5 min) and washed in PBS. Cells were finally resuspended in 500 µl of PBS containing 1% BSA and FITC dual emission assessed by flow cytometry (excitation 488 nm, emission 530 (BL1) and 600 (BL2)) using an Attune NXT flow cytometer (Invitrogen). The emission (BL1/BL2) of all samples were compared to a standard curve, whereby signals were obtained from control cells resuspended in monensin (100 µM) containing Britton Robinson buffer with increasing pH (3.0-8.0).

SH-SY5Y cells [4] = conditions: KO and KO/D508N cells; SPM 10 µM, 4 h
Description: BODIPY-SPM localization and lysosomal rupture analysis - For all immunofluorescent stainings SH-SY5Y cell lines were seeded in 12-well plates (0.25 X 10^5 cells per well on coverslips) and the next day, the cells were incubated with the indicated compounds for 4 h at 37°C. For BODIPY-SPM analysis, cells were pulsed with 5 µM SPM for 15 min, washed and chased in fresh media for a further 1 h and 45 min at 37°C. Following treatments, the cells were washed twice in PBS, fixed in 4% paraformaldehyde for 30 min (37°C), washed in PBS and stored at 4°C. For immunofluorescence staining, the cells were washed in PBS containing 0.5% Tween 20 (PBS-T), permeabilized in PBS containing 0.1% Triton X-100 (30 min) and blocked first in 0.1 M glycine and then in PBS-T containing 1% fetal calf serum and 10% BSA. Gal-3-, LAMP1- and cathepsin B-specific antibodies were used at a dilution of 1:100-200 (in PBS-T containing 1% BSA) overnight at 4°C. Subsequently, the samples were washed and incubated with Alexa Fluor™ secondary antibody (1:1,000, 30 min). To assess FITC-dextran release, cells were loaded with 50 µg/ml FITC-dextran for 72 h, cells were then washed and placed in fresh media for 1 h prior to SPM (10 µM) addition. To visualize the nucleus, all samples were stained with DAPI. […]

SMILES: NCCCCNCCCN [Spermidine, spermidine]
- viability of control cells (SH-SY5Y cells [1]): reduced the viability

SMILES: NCCCNCCCCNCCCN [Spermine, spermine]
- ATPase activity of D508N mutant (D508N mutant): had no effect
- ATP13A2 phospho-enzyme levels (ATP13A2; WT-OE microsomes 20 µg, 60 s with [γ-32P] ATP): dose-dependent reduction
- dephosphorylation rate following a chase with non-radioactive ATP (ATP13A2; WT-OE microsomes, 1 mM SPM): significantly higher dephosphorylation rate
- dephosphorylation of purified WT after chase with cold ATP (Purified ATP13A2): clearly stimulates dephosphorylation
- viability of control cells (SH-SY5Y cells [1]): reduced the viability
- cell death (SH-SY5Y cells [2]): increase in cell death
- lysosomal pH (SH-SY5Y cells [3]): further increased
- endogenous Gal-3 punctae (SH-SY5Y cells [4]): increased both the number and size
